Patent US20260165323A1, “USE OF STROBILURIN TYPE COMPOUNDS FOR COMBATING PHYTOPATHOGENIC FUNGI CONTAINING AN AMINO ACID SUBSTITUTION F129L IN THE MITOCHONDRIAL CYTOCHROME B PROTEIN CONFERRING RESISTANCE TO QO […]” (priority 2022, published 2026)

Tests used:
Assay type in all cases: in vivo
[1] = system: Phakopsora pachyrhizi containing the amino acid substitution F129L in the mitochondrial cytochrome b protein; experiment: Use Example 1: protective control of soybean rust on soybeans (PHAKPA P2); details: inoculated 2 days after spraying, % diseased leaf area
Experimental: (§1) The compound was dissolved in a mixture of acetone and/or dimethylsulfoxide and the wetting agent/emulsifier Wettol, which is based on ethoxylated alkylphenoles, in a ratio (volume) solvent-emulsifier of 99 to 1 to give a total volume of 5 ml. Subsequently, water was added to total volume of 100 ml. This stock solution was then diluted with the described solvent-emulsifier-water mixture to the final concentration given in the tables below.
Use Example 1. Protective Control of Soybean Rust on Soybeans Caused by Phakopsora pachyrhizi (PHAKPA P2)
(§2) Leaves of potted soybean seedlings were sprayed to run-off with the previously described spray solution, containing the concentration of active ingredient or their mixture as described below. The plants were allowed to air-dry. The trial plants were cultivated for 2 days in a greenhouse chamber at 23-27° C. and a relative humidity between 60 and 80%. Then the plants were inoculated with spores of Phakopsora pachyrhizi. The strain used contains the amino acid substitution F129L in the mitochondrial cytochrome b protein conferring resistance to Qo inhibitors. To ensure the success the artificial inoculation, the plants were transferred to a humid chamber with a relative humidity of about 95% and 20 to 24° C. for 24 hr. The trial plants were cultivated for up to 14 days in a greenhouse chamber at 23 to 27° C. and a relative humidity between 60 and 80%. The extent of fungal attack on the leaves was visually assessed as % diseased leaf area, the disease level of untreated controls was usually higher than 85%.

[2] = system: Phakopsora pachyrhizi containing the amino acid substitution F129L in the mitochondrial cytochrome b protein; experiment: Use Example 2: protective control of soybean rust on soybeans (PHAKPA P6); details: inoculated six days after spraying, % diseased leaf area
Experimental: as §1
Use Example 2. Protective Control of Soybean Rust on Soybeans Caused by Phakopsora Pachyrhizi (PHAKPA P6)
as §2, with “active ingredient as described” for “active ingredient or their mixture as described”, “cultivated for six days in” for “cultivated for 2 days in”, “95% and 23 to 27°” for “95% and 20 to 24°”, “23 to 27° C. for” for “20 to 24° C. for”

[3] = system: Puccinia recondita; experiment: Use Example 3: curative control of brown rust on wheat (PUCCRT K4); details: % diseased leaf area
Experimental: as §1
Use Example 3. Curative Control of Brown Rust on Wheat Caused by Puccinia recondita (PUCCRT K4)
The first two developed leaves of potted wheat seedling were dusted with spores of Puccinia recondita. To ensure the success the artificial inoculation, the plants were transferred to a humid chamber without light and a relative humidity of 95 to 99% and 20 to 24° C. for 24 h. The next 3 days the plants were cultivated in a greenhouse chamber at 20 to 24° C. and a relative humidity between 65 and 70%. Then the plants were sprayed to run-off with previously described spray solution, containing the concentration of active ingredient or their mixture as described below. The plants were allowed to air-dry. Then the trial plants were cultivated for 5 to 7 days in a greenhouse chamber at 20 to 24° C. and a relative humidity between 65 and 70%. The extent of fungal attack on the leaves was visually assessed as % diseased leaf area, the disease level of untreated controls was usually between 80 and 100%.

[4] = system: Puccinia recondita; experiment: Use Example 4: preventative control of brown rust on wheat (PUCCRT P7); details: inoculated seven days after spraying, % diseased leaf area
Experimental: as §1
Use Example 4. Preventative Control of Brown Rust on Wheat Caused by Puccinia recondita (PUCCRT P7)
The first two developed leaves of potted wheat seedling were sprayed to run-off with previously described spray solution, containing the concentration of active ingredient or their mixture as described below. Seven days later the plants were dusted with spores of Puccinia recondita. To ensure the success of the artificial inoculation, the plants were transferred to a humid chamber without light and a relative humidity of 95 to 99% and 20 to 24° C. for 24 h. Then the trial plants were cultivated for 9 to 11 days in a greenhouse chamber at 20 to 24° C. and a relative humidity between 65 and 70%. The extent of fungal attack on the leaves was visually assessed as % diseased leaf area, the disease level of untreated controls was usually between 80 and 100%.

SMILES	% PHAKPA (F129L) Disease level P2 at 4 ppm [1] [%]	% PHAKPA (F129L) Disease level P2 at 16 ppm [1] [%]	% PHAKPA (F129L) Disease level P6 at 4 ppm [2] [%]	% PHAKPA (F129L) Disease level P6 at 16 ppm [2] [%]	% PUCCRT Disease level K4 at 4 ppm [3] [%]	% PUCCRT Disease level K4 at 16 ppm [3] [%]	% PUCCRT Disease level P7 at 4 ppm [4] [%]	% PUCCRT Disease level P7 at 16 ppm [4] [%]
CO/C=C(/C(=O)OC)c1cccc(Cl)c1CO/N=C(\COC)c1ccccc1F [compound 13, Methyl-(E)-2-[3-chloro-2-[[(Z)-[1-(2-fluorophenyl)-2-methoxy-ethylidene]amino]oxymethyl]phenyl]-3-methoxy-prop-2-enoate]	5	0	4	0	67	4	67	18
CCOC/C(=N\OCc1c(F)cccc1/C(=C\OC)C(=O)OC)c1ccc(F)cc1 [compound 16]	20	4	70	17	83	57	80	43
CCOCC(=NOCc1c(Cl)cccc1C(=COC)C(=O)OC)c1ccccc1F [compound 18]	6	0	22	2	77	32	80	30
COC/C(=N\OCc1c(Cl)cccc1/C(=N\OC)C(=O)OC)c1ccccc1F [compound 19]	33	6	77	31	87	80	53	15
CCOC/C(=N\OCc1c(Cl)cccc1/C(=N\OC)C(=O)OC)c1ccccc1F [compound 20]	60	43	63	63	80	77	70	57
CNC(=O)/C(=N/OC)c1cccc(Cl)c1CO/N=C(\COC)c1ccccc1F [compound 21]	7	0	16	1	63	28	33	6
CCOC/C(=N\OCc1c(Cl)cccc1/C(=N\OC)C(=O)NC)c1ccccc1F [compound 22]	15	4	40	4	80	63	53	28
CCOCC(=NOCc1c(Cl)cccc1C(=COC)C(=O)OC)c1ccc(F)cc1 [compound 23]	9	0	25	6	67	23	37	6
COC/C(=N\OCc1c(Cl)cccc1/C(=N\OC)C(=O)OC)c1cccc(F)c1 [compound 25]	82	23	90	58	83	78	35	5
CCOC/C(=N\OCc1c(Cl)cccc1/C(=C\OC)C(=O)OC)c1cccc(F)c1 [compound 27]	5	0	17	1	57	12	40	7
COC/C(=N\OCc1c(Cl)cccc1/C(=N\OC)C(=O)OC)c1c(F)cc(F)cc1F [compound 28]	67	13	85	27	75	77	57	4
CCOC/C(=N\OCc1c(Cl)cccc1/C(=C\OC)C(=O)OC)c1c(F)cc(F)cc1F [compound 30]	7	0	25	5	77	35	80	37
CCOC/C(=N\OCc1c(Cl)cccc1/C(=N\OC)C(=O)NC)c1c(F)cc(F)cc1F [compound 32]	12	0	33	1	77	57	53	30
CCOC/C(=N\OCc1c(Cl)cccc1/C(=N\OC)C(=O)OC)c1cccc(Cl)c1 [compound 33]	93	67	75	72	73	73	65	35
CO/C=C(/C(=O)OC)c1cccc(Cl)c1CO/N=C(\COC)c1ccc(Cl)cc1 [compound 35]	16	1	30	4	73	7	14	0
CCOC/C(=N\OCc1c(Cl)cccc1/C(=C\OC)C(=O)OC)c1cccc(Cl)c1 [compound 38]	23	3	50	6	50	8	20	2
